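Exposure lasted 48 hours, with cells grown in 96-well plates and compounds tested at five concentrations. GI50: concentration for 50% inhibition of growth.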 The source made the active and inactive calls. Cut-off read from the data, not from the text of the source: active = GI50 up to about 1.1 µM and inactive = higher.
How the values were obtained:
Assay in all cases: DTP human tumour cell line panel, 48 h
786-0 = system: 786-0
A498 = system: A498
A549 = system: A549
ACHN = system: ACHN
BT-549 = system: BT-549
CAKI-1 = system: CAKI-1
CCRF-CEM = system: CCRF-CEM
COLO 205 = system: COLO 205
DU-145 = system: DU-145
EKVX = system: EKVX
HCC 2998 = system: HCC 2998
HCT-116 = system: HCT-116
HCT-15 = system: HCT-15
HL-60 = system: HL-60
HOP-62 = system: HOP-62
HOP-92 = system: HOP-92
HT-29 = system: HT-29
Hs-578T = system: Hs-578T
IGROV-1 = system: IGROV-1
KM12 = system: KM12
M14 = system: M14
MCF7 = system: MCF7
MDA-MB-231 = system: MDA-MB-231
MDA-MB-435 = system: MDA-MB-435
MDA-N = system: MDA-N
MOLT-4 = system: MOLT-4
Malme-3M = system: Malme-3M
NCI-H226 = system: NCI-H226
NCI-H23 = system: NCI-H23
NCI-H460 = system: NCI-H460
NCI-H522 = system: NCI-H522
NCI/ADR-RES = system: NCI/ADR-RES
OVCAR-3 = system: OVCAR-3
OVCAR-4 = system: OVCAR-4
OVCAR-5 = system: OVCAR-5
OVCAR-8 = system: OVCAR-8
PC-3 = system: PC-3
RPMI-8226 = system: RPMI-8226
RXF 393 = system: RXF 393
SF-268 = system: SF-268
SF-295 = system: SF-295
SF-539 = system: SF-539
SK-MEL-28 = system: SK-MEL-28
SK-MEL-2 = system: SK-MEL-2
SK-MEL-5 = system: SK-MEL-5
SK-OV-3 = system: SK-OV-3
SN12C = system: SN12C
SNB-19 = system: SNB-19
SNB-75 = system: SNB-75
SW-620 = system: SW-620
T47D = system: T47D
TK-10 = system: TK-10
U-251 = system: U-251
UACC-257 = system: UACC-257
UACC-62 = system: UACC-62
UO-31 = system: UO-31
K562 = system: K562
LOX IMVI = system: LOX IMVI

With `Cc1cccc2sc(NC(=O)NS(=O)(=O)n3cnc4ccccc43)nc12` the GI50 (786-0) was 33.8 µM (inactive), the GI50 (A498) was 25.5 µM (inactive) and the GI50 (A549) was 37.5 µM (inactive). The GI50 (ACHN) was 32.8 µM (inactive), the GI50 (BT-549) was 23.3 µM (inactive) and the GI50 (CAKI-1) was 34.7 µM (inactive). The GI50 (CCRF-CEM) was 76.6 µM (inactive), the GI50 (COLO 205) was 27.8 µM (inactive) and the GI50 (DU-145) was 32.8 µM (inactive). For the same molecule, the GI50 (EKVX) was 1.67 µM (inactive), the GI50 (HCC 2998) was 15.6 µM (inactive) and the GI50 (HCT-116) was 28.1 µM (inactive). For the same molecule, the GI50 (HCT-15) was 25.9 µM, the GI50 (HL-60) was 31.5 µM (inactive) and the GI50 (HOP-62) was 34.7 µM (inactive). For the same molecule, the GI50 (HOP-92) was 15.3 µM (inactive), the GI50 (HT-29) was 33.9 µM (inactive) and the GI50 (Hs-578T) was 13.8 µM (inactive). For the same molecule, the GI50 (IGROV-1) was 16.5 µM (inactive), the GI50 (KM12) was 30.4 µM (inactive) and the GI50 (M14) was 31.3 µM (inactive). For the same molecule, the GI50 (MCF7) was 16.1 µM (inactive), the GI50 (MDA-MB-231) was 27 µM (inactive) and the GI50 (MDA-MB-435) was 27.9 µM (inactive). For the same molecule, the GI50 (MDA-N) was 31.3 µM (inactive), the GI50 (MOLT-4) was 26.5 µM (inactive) and the GI50 (Malme-3M) was 25.2 µM (inactive). The GI50 (NCI-H226) was 59 µM (inactive), the GI50 (NCI-H23) was 18.4 µM (inactive) and the GI50 (NCI-H460) was 29.9 µM (inactive). The GI50 (NCI-H522) was 21.6 µM (inactive), the GI50 (NCI/ADR-RES) was 27.4 µM (inactive) and the GI50 (OVCAR-3) was 22.3 µM (inactive). The GI50 (OVCAR-4) was 43.8 µM (inactive), the GI50 (OVCAR-5) was 25.9 µM (inactive) and the GI50 (OVCAR-8) was 22.5 µM (inactive). The GI50 (PC-3) was 28.6 µM (inactive), the GI50 (RPMI-8226) was 21.5 µM (inactive) and the GI50 (RXF 393) was 15.9 µM (inactive). For the same molecule, the GI50 (SF-268) was 28.5 µM (inactive), the GI50 (SF-295) was 20.9 µM (inactive) and the GI50 (SF-539) was 24 µM (inactive). The GI50 (SK-MEL-28) was 35.9 µM (inactive), the GI50 (SK-MEL-2) was 18.7 µM (inactive) and the GI50 (SK-MEL-5) was 21.7 µM (inactive). The GI50 (SK-OV-3) was 38.3 µM (inactive), the GI50 (SN12C) was 25.9 µM (inactive) and the GI50 (SNB-19) was 38 µM (inactive). The GI50 (SNB-75) was 18.8 µM (inactive), the GI50 (SW-620) was 28.4 µM (inactive) and the GI50 (T47D) was 15.1 µM (inactive). For the same molecule, the GI50 (TK-10) was 35.6 µM (inactive), the GI50 (U-251) was 21 µM (inactive) and the GI50 (UACC-257) was 23 µM (inactive). For the same molecule, the GI50 (UACC-62) was 18.3 µM (inactive) and the GI50 (UO-31) was 22.2 µM (inactive).
`Cn1c(=O)[nH]n(-c2ccc3ccccc3c2)c1=O` was tested, and the GI50 (786-0) was > 100 µM (inactive), the GI50 (A498) was > 100 µM (inactive) and the GI50 (A549) was > 100 µM (inactive). The GI50 (ACHN) was > 100 µM (inactive), the GI50 (BT-549) was > 100 µM (inactive) and the GI50 (CAKI-1) was > 100 µM (inactive). The GI50 (CCRF-CEM) was > 100 µM (inactive), the GI50 (COLO 205) was > 100 µM (inactive) and the GI50 (DU-145) was > 100 µM (inactive). The GI50 (EKVX) was > 100 µM (inactive), the GI50 (HCC 2998) was > 100 µM (inactive) and the GI50 (HCT-116) was > 100 µM (inactive). The GI50 (HCT-15) was over 100 µM, the GI50 (HL-60) was > 100 µM (inactive) and the GI50 (HOP-92) was > 100 µM (inactive). The GI50 (HT-29) was > 100 µM (inactive), the GI50 (Hs-578T) was > 100 µM (inactive) and the GI50 (IGROV-1) was > 100 µM (inactive). The GI50 (K562) was > 100 µM (inactive), the GI50 (KM12) was > 100 µM (inactive) and the GI50 (LOX IMVI) was > 100 µM (inactive). For the same molecule, the GI50 (M14) was > 100 µM (inactive), the GI50 (MCF7) was > 100 µM (inactive) and the GI50 (MDA-MB-231) was > 100 µM (inactive). For the same molecule, the GI50 (MDA-MB-435) was > 100 µM (inactive), the GI50 (MDA-N) was > 100 µM (inactive) and the GI50 (Malme-3M) was > 100 µM (inactive). For the same molecule, the GI50 (NCI-H226) was > 100 µM (inactive), the GI50 (NCI-H23) was > 100 µM (inactive) and the GI50 (NCI-H460) was > 100 µM (inactive). For the same molecule, the GI50 (NCI-H522) was > 100 µM (inactive), the GI50 (NCI/ADR-RES) was > 100 µM (inactive) and the GI50 (OVCAR-3) was > 100 µM (inactive). The GI50 (OVCAR-4) was > 100 µM (inactive), the GI50 (OVCAR-5) was > 100 µM (inactive) and the GI50 (OVCAR-8) was > 100 µM (inactive). For the same molecule, the GI50 (PC-3) was > 100 µM (inactive), the GI50 (RPMI-8226) was > 100 µM (inactive) and the GI50 (RXF 393) was > 100 µM (inactive). The GI50 (SF-268) was > 100 µM (inactive), the GI50 (SF-295) was > 100 µM (inactive) and the GI50 (SF-539) was > 100 µM (inactive). For the same molecule, the GI50 (SK-MEL-28) was > 100 µM (inactive), the GI50 (SK-MEL-2) was > 100 µM (inactive) and the GI50 (SK-MEL-5) was > 100 µM (inactive). For the same molecule, the GI50 (SK-OV-3) was > 100 µM (inactive), the GI50 (SN12C) was > 100 µM (inactive) and the GI50 (SNB-19) was > 100 µM (inactive). The GI50 (SNB-75) was > 100 µM (inactive), the GI50 (SW-620) was > 100 µM (inactive) and the GI50 (T47D) was > 100 µM (inactive). For the same molecule, the GI50 (TK-10) was > 100 µM (inactive), the GI50 (U-251) was > 100 µM (inactive) and the GI50 (UACC-257) was > 100 µM (inactive). For the same molecule, the GI50 (UACC-62) was > 100 µM (inactive) and the GI50 (UO-31) was > 100 µM (inactive).
In the case of `COCC([C@@H](O)C(O)C(=O)NCC[C@@H](C)c1nc(/C=C/CC2OC3(C[C@H](O)C2C)OC(C(C[C@H](O)C(C)[C@H](O)C(C)/C=C(C)/C(C)=C/C=C/C(C)=C/C#N)OC)[C@@H](OP(=O)(O)O)C3(C)C)co1)N(C)C` (some centres not stated), the GI50 (786-0) is reported as 0.000176 µM (active), the GI50 (A498) is reported as 0.00188 µM (active) and the GI50 (A549) is reported as 0.0004 µM (active). For the same molecule, the GI50 (ACHN) was 0.000199 µM (active), the GI50 (BT-549) was 0.000167 µM (active) and the GI50 (CAKI-1) was 0.000174 µM (active). The GI50 (COLO 205) was 0.000171 µM (active), the GI50 (DU-145) was 0.000182 µM (active) and the GI50 (EKVX) was 0.000172 µM (active). The GI50 (HCC 2998) was 0.000185 µM (active), the GI50 (HCT-116) was 0.000177 µM (active) and the GI50 (HCT-15) was 0.000202 µM. For the same molecule, the GI50 (HL-60) was 0.00048 µM (active), the GI50 (HOP-92) was 0.000175 µM (active) and the GI50 (HT-29) was 0.000162 µM (active). The GI50 (Hs-578T) was 0.000196 µM (active), the GI50 (IGROV-1) was 0.000161 µM (active) and the GI50 (K562) was 0.000296 µM (active). For the same molecule, the GI50 (KM12) was 0.000184 µM (active), the GI50 (LOX IMVI) was 0.000245 µM (active) and the GI50 (M14) was 0.000173 µM (active). For the same molecule, the GI50 (MCF7) was 0.000184 µM (active), the GI50 (MDA-MB-231) was 0.000242 µM (active) and the GI50 (MDA-MB-435) was 0.000175 µM (active). The GI50 (MDA-N) was 0.000191 µM (active), the GI50 (MOLT-4) was 0.00082 µM (active) and the GI50 (Malme-3M) was 0.000174 µM (active). For the same molecule, the GI50 (NCI-H226) was 0.00015 µM (active), the GI50 (NCI-H23) was 0.000762 µM (active) and the GI50 (NCI-H460) was 0.000139 µM (active). For the same molecule, the GI50 (NCI-H522) was 0.000167 µM (active), the GI50 (NCI/ADR-RES) was 0.00107 µM (active) and the GI50 (OVCAR-3) was 0.000186 µM (active). For the same molecule, the GI50 (OVCAR-4) was 0.00137 µM (active), the GI50 (OVCAR-5) was 0.000188 µM (active) and the GI50 (OVCAR-8) was 0.000208 µM (active). The GI50 (PC-3) was 0.000179 µM (active), the GI50 (RPMI-8226) was 0.000272 µM (active) and the GI50 (SF-268) was 0.000192 µM (active). The GI50 (SF-295) was 0.000184 µM (active), the GI50 (SF-539) was 0.000189 µM (active) and the GI50 (SK-MEL-28) was 0.000184 µM (active). For the same molecule, the GI50 (SK-MEL-2) was 0.000188 µM (active), the GI50 (SK-MEL-5) was 0.000159 µM (active) and the GI50 (SK-OV-3) was 0.000474 µM (active). The GI50 (SN12C) was 0.000179 µM (active), the GI50 (SNB-19) was 0.000195 µM (active) and the GI50 (SNB-75) was 0.000182 µM (active). The GI50 (SW-620) was 0.000182 µM (active), the GI50 (T47D) was 0.000703 µM (active) and the GI50 (TK-10) was 0.000115 µM (active). The GI50 (U-251) was 0.000191 µM (active), the GI50 (UACC-257) was 0.00105 µM (active) and the GI50 (UACC-62) was 0.000195 µM (active). The GI50 (UO-31) was 0.00118 µM (active).

— ChEMBL document CHEMBL1201862, “PubChem BioAssay data set” (2004)
